# From patent publication US20200370050A1, “CELL PROLIFERATION INHIBITOR AND CANCER TREATMENT OR PREVENTION PHARMACEUTICAL COMPOSITION INCLUDING CELL PROLIFERATION INHIBITOR” (priority 2017, published 2020)
# Assays:
# DLD-1 cells = assay: Effect of CRAF protein fragment on cell growth, number of living cells by WST assay (CCK-8); format: cell-based, human; details: 1.0×10^4 cells seeded (similar tendency at 2.0×10^4), transfected with pcDNA-hRAF384, 100 ng plasmid per well, 0-96 h, control empty vector pcDNA3.1(+), FIG. 5 part B
# Procedure: (§1) The CRAF protein fragment expression plasmid pcDNA-hRAF384 (5807 bp) was prepared by cloning the region of positions 332 to 718 of the human CRAF gene (SEQ ID NO: 6) downstream of a CMV (cytomegalovirus) promoter in the vector pcDNA3.1(+) (Thermo Fisher Scientific). The plasmid expresses a CRAF protein fragment (a polypeptide having the amino acid sequence set forth in SEQ ID NO: 9) of positions 56 to 184 of the human CRAF protein (SEQ ID NO: 5).
# DLD-1 cells (KRAS mutation-positive human colon cancer cells) were obtained from JCRB Cell Bank of National Institutes of Biomedical innovation, Health and Nutrition. Since DLD-1 cells have KRAS in which the position 13 amino acid glycine (G) is activatingly mutated to aspartic acid (D), the RAS/RAF/MEK/ERK signaling cascade is activated in DLD-1 cells.
# (§2) The HCT116 or DLD-1 cells were seeded at 1.0×10^4 or 2.0 x 10^4 cells per well of 96-well plates and cultured in a McCoy's SA medium in an environment of 5% CO2 at 37° C. for 24 h. The cultured cells were transfected with the CRAF protein fragment expression plasmid pcDNA-hRAF384 using Lipofectamine 3000 (Thermo Fisher Scientific). As a control, the cells were transfected with the empty vector pcDNA3.1(+) (Thermo Fisher Scientific). […]
# (§3) Immediately (0 h), 24 h, 48 h, 72 h, and 96 h after the cultivation, the cells were collected and measured for the number of living cells by WST assay. […]
# HCT116 cells = assay: as above; format: cell-based, human; details: 1.0×10^4 cells seeded (similar tendency at 2.0×10^4), transfected with pcDNA-hRAF384, 100 ng plasmid per well, 0-96 h, control empty vector pcDNA3.1(+), FIG. 5 part A
# Procedure: as §1
# HCT116 cells (KRAS mutation-positive human colon cancer cells) were obtained from ATCC. Since HCT116 cells have KRAS in which the position 13 amino acid glycine (G) is activatingly mutated to aspartic acid (D), the RAS/RAF/ME/ERK signaling cascade is activated in HCT116 cells.
# as §2, §3
substance,measurement,setting,value
"CRAF protein fragment: Polypeptide of SEQ ID NO: 9, positions 56 to 184 of human CRAF protein, expressed from plasmid pcDNA-hRAF384",cell growth (number of living cells) as compared to the control,DLD-1 cells,reduced growth
same,cell growth (number of living cells) as compared to the control,HCT116 cells,reduced growth
